# Values quoted from earlier work in US20110104137A1, “ADJUNCTS AND COMPLEXES FOR IMPROVING HMG-CoA REDUCTASE INHIBITOR (STATIN) AND SELECTIVE PHOSPHODIESTERASE 5 INHIBITOR THERAPY” (ChronoRX LLC, an Alaska Limited Liability Company, priority 2009, published 2011).
# Legend:
# Lp(a) = conditions: patients with otherwise elevated levels
# [1] = oral L-CAR; placebo group 26.0%
# NF-kappaB = conditions: in vitro and ex-vivo
# [2] = in vivo
# PGI2 = conditions: administered therapeutic dose, humans
# [3] = 12 months, IVUS
# [4] = atorvastatin 80 mg versus pravastatin 40 mg, after ACS
# [5] = no hyperlipidemia, elevated high-sensitivity CRP
# [6] = rosuvastatin 40 mg/d
# ADMA = conditions: in vivo
# CETP = target: T1, CETP (Homo sapiens, UniProt P11597)
# T1 construct: Circulating CETP mediates the transfer of cholesteryl esters from HDL to LDL; host or cells: patients (endogenous plasma CETP, in vivo)
# T1 sequence (P11597 18-493): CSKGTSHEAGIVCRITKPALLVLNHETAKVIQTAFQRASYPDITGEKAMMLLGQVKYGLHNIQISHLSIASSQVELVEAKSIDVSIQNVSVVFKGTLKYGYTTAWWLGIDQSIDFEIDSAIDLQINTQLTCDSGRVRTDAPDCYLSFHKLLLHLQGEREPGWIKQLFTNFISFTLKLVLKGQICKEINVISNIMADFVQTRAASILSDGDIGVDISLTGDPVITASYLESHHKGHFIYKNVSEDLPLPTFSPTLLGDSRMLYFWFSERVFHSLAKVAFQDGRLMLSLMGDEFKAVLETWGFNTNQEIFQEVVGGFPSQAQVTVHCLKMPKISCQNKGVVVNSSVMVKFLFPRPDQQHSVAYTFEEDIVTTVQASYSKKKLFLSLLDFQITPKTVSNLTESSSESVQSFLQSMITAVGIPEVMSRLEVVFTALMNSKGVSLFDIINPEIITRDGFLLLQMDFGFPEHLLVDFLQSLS
# [7] = monotherapy and in combination with a statin
structure (smiles),measurement,setting,value
"CC(=O)O[C@H](CC(=O)[O-])C[N+](C)(C)C [L-CAR, Acetyl-L-carnitine]",plasma Lp(a),Lp(a),reduce plasma Lp(a)
same,"total cardiac events, including cardiac death and nonfatal infarction",[1],15.6%
"O=C(O)CCCCC1CCSS1 (stereo not shown) [LA, 1,2-dithiolane-3-pentanoic acid]",NF-kappaB activation,NF-kappaB,inhibits NF-kappaB activation
CC(C)c1c(C(=O)Nc2ccccc2)c(-c2ccccc2)c(-c2ccc(F)cc2)n1CC[C@@H](O)C[C@@H](O)CC(=O)O [atorvastatin],interaction with warfarin,[2],potentiate warfarin
same,PGI2 signaling,PGI2,does not significantly decrease PGI2 signaling
same,progression of mean plaque volume or thickness,"[3]; 131 patients, placebo 9.6",1.2 mm^3
same,hyperechogenicity of the plaque,[3]; compared to placebo,increased the hyperechogenicity of the plaque
same,rate of hospitalization for HF,[4],significantly reduced the rate of hospitalization for HF
CC[C@H](C)C(=O)O[C@H]1C[C@@H](C)C=C2C=C[C@H](C)[C@H](CC[C@@H]3C[C@@H](O)CC(=O)O3)[C@H]21 [lovastatin],interaction with warfarin,[2],potentiate warfarin
CC(C)c1nc(N(C)S(C)(=O)=O)nc(-c2ccc(F)cc2)c1/C=C/[C@@H](O)C[C@@H](O)CC(=O)O [rosuvastatin],interaction with warfarin,[2],potentiate warfarin
same,incidence of major cardiovascular events,[5],significantly reduced the incidence of major cardiovascular events
same,average LDL achieved,[6]; 349 patients,60.8 mg/dL
same,increase in HDL,[6]; 349 patients,14.7%
same,regression of atherosclerosis,[6]; intravascular ultrasound,significant regression of atherosclerosis
same,effect on plasma ADMA,ADMA,decrease in plasma ADMA
CCOC(=O)N1c2ccc(C(F)(F)F)cc2[C@@H](N(Cc2cc(C(F)(F)F)cc(C(F)(F)F)c2)C(=O)OC)C[C@H]1CC [torcetrapib],mortality,"CETP; mean follow-up of 550 days, cardiovascular and noncardiovascular causes",significant increase in mortality
same,HDL-CHOL levels,CETP; [7],markedly increased HDL-CHOL levels
same,LDL-CHOL,CETP; [7],reduced LDL-CHOL
same,mean particle size of HDL and LDL,CETP; [7],increased the mean particle size of both HDL and of LDL
